Experimental data: PMC9989931, “Membrane‐acting biomimetic peptoids against visceral leishmaniasis” (FEBS Open Bio, 2023)
“And” between values parts separate entries of the source, which are not always exact repeats. Equal entries are not always repeated. “Also recorded” adds a separate entry of the source. Square brackets hold non-standard residues; d marks the D form. Peptide text beside a SMILES is read from it. Nspe(4-Br) = C[C@H](NCC(=O)O)c1ccc(Br)cc1; N(tridecyl)Gly = CCCCCCCCCCCCCNCC(=O)O; Nspe = C[C@H](NCC(=O)O)c1ccccc1; Nlys = NCCCCNCC(=O)O

Experiments:
RAW 264.7 cells = assay: Cytotoxicity against RAW 264.7 cells (MTT); type: cell-based, murine; conditions: for Host cell viability: 20 µM
Description: The cytotoxicity of different peptoids against RAW 264.7 cells was assessed by the MTT method following a published protocol. Briefly, murine macrophages were seeded in a 96‐well plate using DMEM supplemented with 10% FBS maintained at 37 °C and 5% CO2 for 24 h. Next, different concentrations of peptoids (5–80 μM) were added and incubated for 24 h followed by the addition of MTT for 2 h and solubilization of formazene crystals with DMSO addition. Percentage cell viability was calculated relative to the peptoid untreated sample.
Fig. 6 Percentage of living RAW 264.7 cells after incubation with different concentrations of peptoids. RAW 264.7 macrophage cells were incubated with peptoid for 24 h. […] The working concentration of 10 μM of peptoids caused only 50% or lower cytotoxicity in RAW 264.7 cells. Cell viability was determined by MTT assay, and data based on three experiments are represented by mean ± SD.

[1] = tested on: Leishmania donovani promastigotes (Bob strain); type: cell-based; conditions: 4 h; for Reduction of promastigote viability: at 3 μM, MTT, vs untreated cells
Description: Promastigotes of bob L. donovani were harvested in the log phase, and parasite inhibition was determined through 3‐(4,5‐dimethylthiazol‐2‐yl)‐2,5‐diphenyl‐tetrazolium bromide (MTT) methods using twofold dilution techniques. Briefly, promastigote density of 2 × 10^6 cells was taken, and different peptoid dilutions were added (0.187–3 μM) in a total volume of 100 μL. Percentage parasite viability was evaluated at 4 h at 25 °C using MTT (Sigma‐Aldrich). Parasite viability rate (%) = [OD of test sample/OD of untreated sample] × 100.
All experiments were carried out in triplicate and repeated at least three times independently (biological replicates), and the figures shown are representative of these experiments. IC50 was calculated using GRAPHPAD PRISM 6.0 software. The data were analyzed using Student's t‐test for comparison of two groups, and data values were expressed as mean ± standard deviation (SD). Significant differences were determined and designated with asterisks as follows: *P < 0.05; **P < 0.01; ***P < 0.001; and ****P < 0.0001.
Fig. 1 Antileishmanial activity of peptoids against Leishmania donovani promastigotes. Early‐logarithmic‐phase promastigotes of L. donovani bob strain were treated with different peptoids at different concentrations (0–3 μM) for 4 h. Negative control was considered 100% of cell viability (untreated) and positive control (Triton X treated). Cellular viability was assessed by MTT assay, and the IC50 values were calculated using GRAPHPAD PRISM 6.0. Error bars represent SD N = 3 and n = 3.

[2] = tested on: Leishmania donovani intracellular amastigotes; assay: Intracellular amastigote clearance in infected RAW 264.7 macrophages (Giemsa staining, microscopy); type: cell-based; design: key to Effect on intracellular amastigotes: *: Good; **: Better; ***: Best; conditions: 10 μM peptoid, infected RAW 264.7 cells; for Effect on intracellular amastigotes by Giemsa staining (number, size, count): vs untreated control, 24 h or 4 h; for Effect on intracellular amastigotes: Giemsa staining, grade
Description: To evaluate the inhibitory effect of different peptoids on intracellular amastigotes, RAW 264.7 cells were infected with logarithmic phase promastigotes. Briefly, RAW 264.7 cells (10^5 cells/well) were seeded in 24‐well plates with round sterile coverslips and allowed to adhere to the coverslip for 24 h at 37 °C at 5% CO2 DMEM media supplemented with 10% FBS. Adherent macrophages were infected with L. donovani promastigotes at 1 : 10 (macrophage: promastigotes) for 6 h. Co‐infected cells were washed with PBS three times and incubated for a further 24 h for infection establishment. After 24 h, media were removed and again washed with FBS‐free DMEM followed by peptoid treatment. Ten μM of different peptoids were added to the co‐infected cells and incubated for 4 h at 37 °C at 5% CO2. After 4 h, peptoid‐treated co‐infected cells were washed with PBS, fixed with 100% methanol, and stained with diluted Giemsa stain (1 : 10) (HiMedia, Mumbai, India). The parasite clearance status of peptoids was determined by counting the number of the parasites using the Leica LAS core microscope system by counting 100 cells per coverslip.
Fig. 2 Giemsa staining of intracellular amastigotes in macrophage 264.7 cells after treatment with different peptoids at 10 μM concentrations. Untreated amastigotes (A), sample treated with TM 1 (B), TM 2 (C), TM 3 (D), TM 4 (E), TM 5 (F), TM 7 (G), TM 9 (H), and TM 10 (I). Red arrow points to the amastigotes form of Leishmania donovani parasite. Scale bar represents […].

Compound	Host cell viability (RAW 264.7 cells)	IC50 [1] [nM]	Reduction of promastigote viability [1] [%]	Effect on intracellular amastigotes by Giemsa staining (number, size, count) [2]	Effect on intracellular amastigotes [2]	Reduction in host cell viability (RAW 264.7 cells; RAW 264.7 cells, 10 μM, 24 h, MTT)
C[C@@H](c1ccccc1)N(CC(N)=O)C(=O)CN(C(=O)CN(CCCCN)C(=O)CN(C(=O)CN(C(=O)CNCCCCN)[C@@H](C)c1ccccc1)[C@@H](C)c1ccccc1)[C@@H](C)c1ccccc1 [TM7] (H-[Nlys][Nspe][Nspe][Nlys][Nspe][Nspe]-NH2)	no toxicity	3030	≥ 50	reduction in number and size of amastigotes; also recorded: significantly reduced their count	**	
C[C@@H](c1ccc(Br)cc1)N(CC(N)=O)C(=O)CN(C(=O)CN(CCCCN)C(=O)CN(C(=O)CN(C(=O)CNCCCCN)[C@@H](C)c1ccccc1)[C@@H](C)c1ccccc1)[C@@H](C)c1ccccc1 [TM3] (H-[Nlys][Nspe][Nspe][Nlys][Nspe][Nspe(4-Br)]-NH2)	no toxicity	4600			*	
C[C@@H](c1ccc(Br)cc1)N(CC(N)=O)C(=O)CN(C(=O)CN(CCCCN)C(=O)CN(C(=O)CN(C(=O)CNCCCCN)[C@@H](C)c1ccccc1)[C@@H](C)c1ccc(Br)cc1)[C@@H](C)c1ccccc1 [TM2] (H-[Nlys][Nspe][Nspe(4-Br)][Nlys][Nspe][Nspe(4-Br)]-NH2)	more than 50%	1400	≥ 50		*	
C[C@@H](c1ccccc1)N(CC(N)=O)C(=O)CN(C(=O)CN(CCCCN)C(=O)CN(C(=O)CN(C(=O)CN(CCCCN)C(=O)CN(C(=O)CN(C(=O)CN(CCCCN)C(=O)CN(C(=O)CN(C(=O)CNCCCCN)[C@@H](C)c1ccccc1)[C@@H](C)c1ccccc1)[C@@H](C)c1ccccc1)[C@@H](C)c1ccccc1)[C@@H](C)c1ccccc1)[C@@H](C)c1ccccc1)[C@@H](C)c1ccccc1 [TM1] (H-[Nlys][Nspe][Nspe][Nlys][Nspe][Nspe][Nlys][Nspe][Nspe][Nlys][Nspe][Nspe]-NH2)			≥ 50	reduction in number and size of amastigotes; also recorded: reduces the amastigote count	***	~ 40% and 40%
CCCCCCCCCCCCCNCC(=O)N(CCCCN)CC(=O)N(CC(=O)N(CC(=O)N(CCCCN)CC(=O)N(CC(=O)N(CC(N)=O)[C@@H](C)c1ccc(Br)cc1)[C@@H](C)c1ccccc1)[C@@H](C)c1ccc(Br)cc1)[C@@H](C)c1ccccc1 [TM10] (H-[N(tridecyl)Gly][Nlys][Nspe][Nspe(4-Br)][Nlys][Nspe][Nspe(4-Br)]-NH2)		1540		reduction in number and size of amastigotes; also recorded: significantly reduced their count	***	
